The assay has as its target Opiate receptor. The assay is described as follows: Opiate receptor binding (IC50) by the method of Pasternak et al. using tritiated naloxone, absence of sodium ions. The note with it: method indicated in Example 1 (tritiated naloxone, absence of sodium ions, 4° C., pH 7.4); Table 2. The procedure:
*Method of Pasternak, G. W. et al., Molecular Pharmacology, 11, 340-351
(1975) using tritiated naloxone and in the absence of sodium ions; assays
trishydrochloric acid buffer (50 mM, pH 7.4).
(§1) The opiate receptor IC50 (M) was ascertained by the method indicated in Example 1.
as §1

H.Try.Gly.Gly.Phe.D-Met.OMe HCl [(Y)]: the IC50 (in general, the concentration that inhibits the measured activity by half) came to 60 nM.

(Values after US4231923A, “Assay method and compounds” (Burroughs Wellcome Co., priority 1977, dated 1980).)
